# Data published in patent US7015306B2 (BioSynthema, Inc., priority 1999, dated 2006).
# Where a SMILES comes first, the peptide text is derived from it. [ ]: non-standard residue; d: D form. The star is where a group is joined. ξ: configuration not given here. DTPA = O=C(O)CN(CCN(CC(=O)O)CC(=O)O)CCN(CC(=O)O)CC(=O)*; ξGly(4-Pip(1-amidino)) = N=C(N)N1CCC(C(N)C(=O)O)CC1; tBuAla = CC(C)(C)C[C@H](N)C(=O)O; Tle = CC(C)(C)[C@H](N)C(=O)O
# Tests used:
# [1] = biological target: T1, HT 29 colon adenocarcinoma cells (Homo sapiens, UniProt P30989); settings: Ψ(CH2NH) pseudo-peptide analogs; cited from earlier work
# T1 construct: host or cells: HT 29 colon adenocarcinoma cells (endogenous receptors)
# T1 sequence (P30989 whole entry): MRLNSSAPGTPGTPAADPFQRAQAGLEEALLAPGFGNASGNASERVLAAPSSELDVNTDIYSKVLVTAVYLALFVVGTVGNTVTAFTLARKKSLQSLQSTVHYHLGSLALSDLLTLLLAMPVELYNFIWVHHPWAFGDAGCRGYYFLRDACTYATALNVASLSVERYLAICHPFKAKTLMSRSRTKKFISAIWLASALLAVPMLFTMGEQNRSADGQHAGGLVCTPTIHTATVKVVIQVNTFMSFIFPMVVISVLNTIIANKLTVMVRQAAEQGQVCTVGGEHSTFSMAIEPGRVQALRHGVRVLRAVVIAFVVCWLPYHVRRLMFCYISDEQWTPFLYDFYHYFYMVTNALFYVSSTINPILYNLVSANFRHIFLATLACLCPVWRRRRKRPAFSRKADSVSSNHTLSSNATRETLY
# [2] = biological target: rat brain synaptic membranes; settings: read-out: Kd binding to rat brain synaptic membranes; cited from earlier work
# neurotensin receptors = neurotensin receptors (Homo sapiens, UniProt P30989); experiment: Competitive binding assay on frozen tissue sections of receptor-positive human tumors vs radioiodinated native neurotensin; settings: Table 3
# Sequence of neurotensin receptors (P30989 whole entry): as above
# Text: Frozen tissue sections from receptor-positive human tumors were used in a competitive binding assay.
# [3] = In vitro serum stability assay (HPLC) of In-111 labeled peptide; format: in vitro ADME, human; settings: human serum, 37EC, 4 hours
# Method in brief: (§1)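 The peptide was labeled with ^111InCl3 in sodium acetate/ascorbic acid buffer for 30 min at room temperature, then diluted in 5% ethanol/PBS. It was incubated at 37 °C in human serum or rat urine for set times. Filtered aliquots were analyzed by HPLC.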
# [4] = In vitro urine stability assay (HPLC) of In-111 labeled peptide; format: in vitro ADME; settings: rat urine, 37EC, 4 hours
# Method in brief: as §1
# [5] = biological target: human brain neurotensin membranes; settings: read-out: Kd for binding on human brain neurotensin membranes; cited from earlier work
compound,measurement,setting,value
DTPA-Lys^8(Ψ-CH2NH)Arg^9-Pro-Tyr-Ile-Leu-OH ({DTPA}-KRPYIL-OH; also: reduced CH2NH bond between Lys and Arg) [DTPA-Lys^8-Ψ(CH2NH)-Arg^8-NT(8–13)],Kd,[1],13 nM
DTPA-Lys^8-Ψ(CH2NH)-Lys^8-NT(8–13),Kd,[1],7.4 nM
"monoiodo-125-[Trp^11]-neurotensin (QLYENKPRRPWIL; Neurotensin monoiodo 125I label; UniProt P30990 151-163, looked up, variant Y11W)",Kd,[2],0.1 nM
"CC(C)(C)C[C@H](NC(=O)[C@@H](NC(=O)[C@H](Cc1ccc(O)cc1)NC(=O)[C@@H]1CCCN1C(=O)[C@H](CCCNC(=N)N)NC(=O)C(NC(=O)[C@@H]1CCCN1C(=O)[C@H](CCCCN)NC(=O)[C@H](CC(N)=O)NC(=O)[C@H](CCC(=O)O)NC(=O)[C@@H](Cc1ccc(O)cc1)NC(=O)CN(CCN(CCN(CC(=O)O)CC(=O)O)CC(=O)O)CC(=O)O)C1CCN(C(=N)N)CC1)C(C)(C)C)C(=O)O (stereo partly drawn) [Compound XV, DTPA-DTyr-Glu-Asn-Lys-Pro-Gly(PipAm)-Arg-Pro-Tyr-tBuGly-tBuAla-OH] ({DTPA}-[dY]ENKP[ξGly(4-Pip(1-amidino))]RPY[Tle][tBuAla]-OH)",Kd,neurotensin receptors,3.5 nM
same,"% of peptide at 4 hours after incubation at 37EC, Serum",[3],98.9%
same,"% of peptide at 4 hours after incubation at 37EC, Urine",[4],89.8%
"monoiodo-125 derivative of natural neurotensin: monoiodo-125 derivative of natural neurotensin, radioiodo analog from the literature",Kd,[5],0.26 nM
